Experimental data published in ChEMBL document CHEMBL5113444, “Synthesis of biotinylated-LPG as a chemical biology tool enabling discovery of ALCAT1 modulators” (Bioorg Med Chem Lett, 2022).
The source made the active and inactive calls. The calls are words filed in the database; no cut-off is given here.

Columns and labels:
[1] = target: T1, Lysocardiolipin acyltransferase 1 (Homo sapiens) (UniProt Q6UWP7); test: Substrate activity at recombinant human ALCAT1 expressed in HEK293 cells using oleoyl-CoA as substrate assessed as biotinylated (BTN)-di-oleoyl LPG product formation by Rapidfire-triple quad mass spectrometry analysis; conditions: filed as modulator, time <= 64.0 min, TDE = time-dependent effect
T1 sequence (whole entry): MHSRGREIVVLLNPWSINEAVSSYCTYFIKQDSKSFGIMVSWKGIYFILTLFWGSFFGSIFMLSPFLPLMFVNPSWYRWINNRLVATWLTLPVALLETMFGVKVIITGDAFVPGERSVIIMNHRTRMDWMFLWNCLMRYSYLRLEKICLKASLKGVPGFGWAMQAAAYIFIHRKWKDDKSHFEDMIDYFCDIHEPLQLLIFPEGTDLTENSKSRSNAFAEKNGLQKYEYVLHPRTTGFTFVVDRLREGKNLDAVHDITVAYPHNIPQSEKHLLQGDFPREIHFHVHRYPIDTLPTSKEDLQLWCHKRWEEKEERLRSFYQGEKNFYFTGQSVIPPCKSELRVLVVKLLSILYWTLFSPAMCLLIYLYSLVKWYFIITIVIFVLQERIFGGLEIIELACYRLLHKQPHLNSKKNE

[2] = target: T1, Lysocardiolipin acyltransferase 1 (Homo sapiens); test: Substrate activity at recombinant human ALCAT1 expressed in HEK293 cells using oleoyl-CoA as substrate assessed as acylated product formation by Rapidfire-triple quad mass spectrometry analysis; conditions: filed as modulator

Row | Structure (SMILES) | Activity [1] | Activity [2]
1 | O=C1N[C@H]2[C@H](CS[C@H]2CCCCC(=O)OCCCCCCC/C=C\CCCCCCCC(=O)OC[C@@H](O)COP(=O)(O)OCC(O)CO)N1 (some centres not stated) | Tde | –
2 | CCCCCCCCCCCCCCCC(=O)OC[C@H](O)COP(=O)(O)OC[C@H](O)CO | – | Active
